Paper PMC10145310, “Optimization of Ultrasonic-Assisted Extraction of α-Glucosidase Inhibitors from Dryopteris crassirhizoma Using Artificial Neural Network and Response Surface Methodology” (Metabolites, 2023)

Columns and labels:
[1] = tested on: RAW264.7 cells; parameters: method as in PMID 34971945; conditions: RAW264.7 cells induced with lipopolysaccharide; cited from earlier work
[2] = biological target: T1, α-glucosidase (Saccharomyces cerevisiae, UniProt P53341); assay: α-glucosidase inhibition assay (4-nitrophenyl-D-glucopyranoside substrate, 405 nm); format: biochemical; conditions: for inhibition at 100 µM: compound at 100 µM, mean ± SEM, triplicate
T1 construct: purchased Merck (Germany) G5003
T1 sequence (P53341 whole entry): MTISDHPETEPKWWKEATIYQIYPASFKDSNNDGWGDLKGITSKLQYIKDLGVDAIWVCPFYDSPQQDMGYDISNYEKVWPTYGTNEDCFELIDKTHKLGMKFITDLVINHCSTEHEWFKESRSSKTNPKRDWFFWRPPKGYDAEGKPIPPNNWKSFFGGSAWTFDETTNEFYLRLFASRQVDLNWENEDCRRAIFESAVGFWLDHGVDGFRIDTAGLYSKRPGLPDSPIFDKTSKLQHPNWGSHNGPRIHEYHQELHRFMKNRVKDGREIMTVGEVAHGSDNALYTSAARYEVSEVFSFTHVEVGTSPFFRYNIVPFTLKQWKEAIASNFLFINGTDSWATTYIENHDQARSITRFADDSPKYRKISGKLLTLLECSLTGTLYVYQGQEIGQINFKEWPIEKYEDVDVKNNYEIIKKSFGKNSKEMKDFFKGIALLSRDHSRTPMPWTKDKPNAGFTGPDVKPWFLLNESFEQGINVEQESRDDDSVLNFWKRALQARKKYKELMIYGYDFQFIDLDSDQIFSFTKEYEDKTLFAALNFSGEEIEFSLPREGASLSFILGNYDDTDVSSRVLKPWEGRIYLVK
Method: The α-glucosidase assay was performed as previously described. First, 130 μL of α-glucosidase (0.16 unit/mL) in 0.1 mM phosphate buffer (pH 6.8) was added to a 96-well plate with 20 μL of test compounds dissolved in dimethylsulfoxide. Then, 50 μL of 1 mM substrate (4-nitrophenyl-D-glucopyranoside) in the buffer was added to the mixture. The intensity of p-nitrophenol converted from 4-nitrophenyl-D-glucopyranoside by α-glucosidase was measured after […] at 405 nm using Infinite 200 PRO spectrophotometer (Tecan, Zürich, Switzerland). (1) Inhibitory activity rate (%)=[(ΔC−ΔS)/ΔC]×100 where ΔC and ΔS are the intensity of control and inhibitor after 20 min, respectively. […] The inhibitory effect was elucidated via triplicate independent experiments. […] Statistical differences were investigated using one-way ANOVA and Duncanʹs test with a p-value < 0.05. SigmaPlot 10.0 (Systat Software Inc., San Jose, CA, USA) was used to analyze the inhibition results.

[3] = tested on: PTP1B; parameters: method as in PMID 34416263; conditions: previous studies; cited from earlier work
[4] = biological target: β-glucuronidase; parameters: method as in PMID 36295840; conditions: previous studies; cited from earlier work
[5] = tested on: platelet aggregation induced by collagen; parameters: method as in PMID 31200488; conditions: cited from earlier work
[6] = tested on: platelet aggregation induced by arachidonic acid; parameters: method as in PMID 31200488; conditions: cited from earlier work
[7] = tested on: SARS-CoV-2; parameters: method as in PMID 35214108; conditions: Vero cells, immunofluorescence-based antiviral assays; cited from earlier work
[8] = tested on: influenza A virus H1N1; parameters: method as in PMID 34971945; conditions: cited from earlier work

3″-epi-dryoptol G
effect on production of nitric oxide and secretion of IL-1β and IL-18 [1]: significant inhibitory effects

C[C@H]1O[C@H](O[C@H]2[C@H](O)[C@@H](O)[C@@H](O[C@H]3[C@H](O)[C@@H](O)C(O)O[C@@H]3CO)O[C@@H]2CO)[C@H](O)[C@@H](O)[C@@H]1N[C@H]1C=C(CO)[C@@H](O)[C@H](O)[C@H]1O (stereo partly shown) [Acarbose, acarbose]
inhibition at 100 µM [2]: 21.7 ± 1.43%

CCC(=O)c1c(O)c(C)c(O)c(CC2=C(O)C(C)(C)C(O)=C(C(C)=O)C2=O)c1O [Compound 1, flavaspidic acid AP]
inhibition at 100 µM [2]: < 50%

CCCC(=O)c1c(O)cc(O)c(Cc2c(O)c(CC3=C(O)C(C)(C)C(O)=C(C(C)=O)C3=O)c(O)c(C(=O)CCC)c2O)c1O [Compound 2, nortrisflavaspidic acid ABB]
IC50 [2]: 34 ± 0.14 µM | inhibition at 100 µM [2]: > 50% | IC50 [3]: 1.19 ± 0.13 µM | IC50 [4]: 8 ± 1.8 µM

CCCC(=O)c1c(O)cc(O)c(C)c1O [butyryl-3-methylphloroglucinol]
inhibition of platelet aggregation, ratio [5]: 92.36% | inhibition of platelet aggregation, ratio [6]: 89.51%

dryocrassin ABBA
inhibitory activity against SARS-CoV-2 infection [7]: dose-dependent inhibitory activity

dryoptol G
effect on production of nitric oxide and secretion of IL-1β and IL-18 [1]: significant inhibitory effects

filixic acid ABA
inhibitory activity against SARS-CoV-2 infection [7]: dose-dependent inhibitory activity | antiviral effect against influenza A virus H1N1 [8]: responsible for the antiviral effect
